According to patent publication US20230413808A1, “Bioactive complexes” (priority 2020, published 2023):

Legend:
Format in all cases: physicochemical
[1] = Visual interaction of active ingredient with polyelectrolyte PAA
Description: (§1) To determine interaction between polyelectrolytes (PE; Table 1) and active ingredients (AI; Table 2) aqueous stock solutions of about 200 g/L of the PE and of the active ingredients were prepared. The polyelectrolytes were diluted in water and stirred on magnetic stirrer for at least 30 minutes until a homogenous clear solution was obtained (ratios and amounts are presented in Table 4). The active ingredients were dissolved in water on magnetic stirrer or, if they weren't water soluble, suspended in water and milled by adding glass beads (1 mm) in a stainless steel metal beaker until they reach a volume-based average particle size below 20 μm (90% of particles below 20 μm), as determined by laser diffraction. After that the mixture was filtered with a sieve to remove glass beads and the filtrate was used for further analysis.
(§2) A polyelectrolyte solution, PAA or chitosan, was added to a 100-150 mL glass beaker, followed by water and an active ingredient solution/suspension. The mixture was stirred for at least 4 hours, and samples were observed after at least 16 hours. The visual observable interactions were divided into five categories (see Table 3). The categories were chosen by comparison to a blank sample containing the same concentration of active ingredient in water but without polyelectrolyte. […] Interactions were studied over a large range of active ingredient to polyelectrolyte ratios, including 10.000:1 (w/w), 1000:1 (w/w), 100:1 (w/w), 10:1 (w/w), 1:1 (w/w), 1:10 (w/w), 1:100 (w/w) and 1:1000) (w/w).

[2] = Visual interaction of active ingredient with chitosan; set-up: key to Visual observation category, Active ingredient: chitosan: P: Formation of a precipitate; G: Formation of a gel; C: Formation of a coacervate; V: Increase/decrease of the sediment volume; S: Decrease of solid by increase of solved active ingredient; No visual observable interaction
Description: as §1, §2

[3] = Visual interaction with polyanion sodium lignosulfonate; conditions: visible complex formation
[4] = Humectancy assay; conditions: dried at 54° C., then 97% relative humidity at 25° C.; weight after/before x 100
Description: The complexes of the interaction assay were used to conduct a humectancy assay. […] After reweighing on an analytical balance, the trays were placed in a climate chamber and stored for at least 2 days at 54° C. or until no further weight change was observed. […] The air tight box was 20 cm×12 cm×7 cm. In the box a chicken wire construct was used to create two levels with 10-20 ml of saturated solution of dipotassium sulfate in a petri dish in a lower level, and the samples in an upper level. Boxes were located into an incubator at 25° C. The boxes were incubated for at least 5 days at 25° C. before use to allow equilibration of temperature and humidity. Hereafter, the trays were reweighed.
The change in humectancy by combining a pesticide and polyelectrolyte is expressed as percent value by multiplying the sample weight after incubation (w2) with 100 divided with the sample weight before incubation (w1) using the following equation: […]
To evaluate the effect of the interaction of the active ingredient and polyelectrolyte on humectancy (synergetic/antagonistic/no effect), the determined Humectancy of the samples containing both active ingredient and polyelectrolyte “Humectancy (blend)” was divided by the theoretical value of Humectancy of the blend provided by respective proportion (% AI; % PE) of each pesticide and polyelectrolyte using the following equation: […]
According to this formula, a positive result of more than 1 is indicative of synergy.
The complexes obtained with the method of WO2010035118, with both ratios of 2:1 and 1:5 (PAA:AI) were tested for humectancy. […] For each sample, the test was carried in triplicate.
For each sample, the test was carried in triplicate.

[5] = ratio active ingredient:PAA 1:10 (w/w)
[6] = ratio active ingredient:PAA 1:100 (w/w)
[7] = ratio active ingredient:chitosan 1.000:1 (w/w)
[8] = ratio active ingredient:chitosan 1:1 (w/w)
[9] = ratio active ingredient:chitosan 1:10 (w/w)
[10] = ratio active ingredient:chitosan 1:100 (w/w)
[11] = ratio active ingredient:chitosan 2:1 (w/w)
[12] = ratio active ingredient:chitosan 5:1 (w/w)
[13] = ratio active ingredient:chitosan 10.000:1 (w/w)
[14] = ratio active ingredient:chitosan 10:1 (w/w)
[15] = ratio active ingredient:chitosan 100:1 (w/w)
[16] = ratio active ingredient:PAA 1.000:1 (w/w)
[17] = ratio active ingredient:PAA 10.000:1 (w/w)
[18] = ratio active ingredient:PAA 100:1 (w/w)
[19] = ratio active ingredient:PAA 1:1000 (w/w)
[20] = ratio active ingredient:PAA 1:1 (w/w)

COc1c(Cl)ccc(Cl)c1C(=O)O [Dicamba, 3,6-dichloro-2-methoxybenzoic acid]
Visual observation category, Active ingredient: PAA [1, 5]: N | Visual observation category, Active ingredient: PAA [1, 6]: N | Visual observation category, Active ingredient: PAA ([1]; ratio active ingredient:PAA 100.000:1 (w/w)): N | Visual observation category, Active ingredient: chitosan [2, 7]: P | Visual observation category, Active ingredient: chitosan [2, 8]: N | Visual observation category, Active ingredient: chitosan [2, 9]: N | Visual observation category, Active ingredient: chitosan [2, 10]: N | Visual observation category, Active ingredient: chitosan [2, 11]: N | Visual observation category, Active ingredient: chitosan [2, 12]: P | Visual observation category, Active ingredient: chitosan [2, 13]: N | Visual observation category, Active ingredient: chitosan [2, 14]: P | Visual observation category, Active ingredient: chitosan [2, 15]: P | Interaction with the polyanion sodium lignosulfonate [3]: did not form a visible complex

O=C1c2ccccc2C(=O)N1SC(Cl)(Cl)Cl [folpet, N-(trichloromethylthio)phthalimide]
Interaction with the polycation PAA [1]: interacts over a large range of ratio's

O=[PH]([O-])[O-].[K+].[K+] [K2HPO3]
Visual observation category, Active ingredient: PAA [1, 16]: N | Visual observation category, Active ingredient: PAA [1, 5]: N | Visual observation category, Active ingredient: PAA [1, 6]: N | Visual observation category, Active ingredient: PAA [1, 17]: N | Visual observation category, Active ingredient: PAA [1, 18]: N | Interaction with the polyanion sodium lignosulfonate [3]: did not form a visible complex

CCCCCCCCC(=O)O [Pelargonic acid, nonanoic acid]
Visual observation category, Active ingredient: PAA [1, 6]: N | Visual observation category, Active ingredient: PAA [1, 19]: N | Visual observation category, Active ingredient: PAA [1, 17]: N | Interaction with the polyanion sodium lignosulfonate [3]: did not form a visible complex

CNC(=N[N+](=O)[O-])NCc1cnc(Cl)s1 [Clothianidin, 1-[(2-chloro-1,3-thiazol-5-yl)methyl]-3-methyl-2-nitroguanidine]
Visual observation category, Active ingredient: PAA [1, 5]: N | Visual observation category, Active ingredient: PAA [1, 6]: N | Visual observation category, Active ingredient: PAA [1, 19]: N | Visual observation category, Active ingredient: PAA [1, 17]: N | Humectancy [4]: 120.0%

O=C(O)[C@@H]1CCCN1 [Proline]
Visual observation category, Active ingredient: PAA [1, 16]: N | Visual observation category, Active ingredient: PAA [1, 20]: N | Visual observation category, Active ingredient: PAA [1, 5]: N | Visual observation category, Active ingredient: PAA [1, 6]: N | Visual observation category, Active ingredient: PAA [1, 19]: N | Visual observation category, Active ingredient: PAA [1, 17]: N | Visual observation category, Active ingredient: PAA ([1]; ratio active ingredient:PAA 10:1 (w/w)): N | Visual observation category, Active ingredient: PAA [1, 18]: N

O=[N+]([O-])/N=C1\NCCN1Cc1ccc(Cl)nc1 [Imidacloprid, (NE)-N-[1-[(6-chloropyridin-3-yl)methyl]imidazolidin-2-ylidene]nitramide]
Visual observation category, Active ingredient: PAA [1, 20]: N | Visual observation category, Active ingredient: PAA [1, 5]: N | Visual observation category, Active ingredient: PAA [1, 6]: N | Visual observation category, Active ingredient: PAA ([1]; ratio active ingredient:PAA 2:1 (w/w)): N | Visual observation category, Active ingredient: PAA ([1]; ratio active ingredient:PAA 5:1 (w/w)): No | Visual observation category, Active ingredient: PAA [1, 17]: N | Humectancy [4]: 108.4%

N.N.O=[PH](O)O [(NH4)2HPO3]
Visual observation category, Active ingredient: PAA [1, 16]: N | Visual observation category, Active ingredient: PAA [1, 5]: N | Visual observation category, Active ingredient: PAA [1, 6]: N | Visual observation category, Active ingredient: PAA [1, 17]: N | Visual observation category, Active ingredient: PAA [1, 18]: N | Interaction with the polyanion sodium lignosulfonate [3]: did not form a visible complex

C[C@@H]1C/C=C/C=C/C=C/C=C/[C@H](O[C@@H]2O[C@H](C)[C@@H](O)[C@H](N)[C@@H]2O)C[C@@H]2O[C@](O)(C[C@@H](O)C[C@H]3O[C@@H]3/C=C/C(=O)O1)C[C@H](O)[C@H]2C(=O)O [Natamycin, (1R,3S,5R,7R,8E,12R,14E,16E,18E,20E,22R,24S,25R,26S)-22-[(2R,3S,4S,5S,6R)-4-amino-3,5-dihydroxy-6-methyloxan-2-yl]oxy-1,3,26-trihydroxy-12-methyl-10-oxo-6,11,28-trioxatricyclo[22.3.1.05,7]octacosa-8,14,16,18,20-pentaene-25-carboxylic acid]
Visual observation category, Active ingredient: PAA [1, 16]: N | Visual observation category, Active ingredient: PAA [1, 5]: N | Visual observation category, Active ingredient: PAA [1, 6]: N | Interaction with chitosan [2]: interact

O=[PH]([O-])[O-].[Na+].[Na+] [Na2HPO3]
Visual observation category, Active ingredient: PAA [1, 16]: N | Visual observation category, Active ingredient: PAA [1, 5]: N | Visual observation category, Active ingredient: PAA [1, 6]: N | Visual observation category, Active ingredient: PAA [1, 17]: N | Visual observation category, Active ingredient: PAA [1, 18]: N | Interaction with the polyanion sodium lignosulfonate [3]: did not form a visible complex

CCO[PH](=O)O [Fosetyl Al]
Visual observation category, Active ingredient: PAA [1, 5]: N | Visual observation category, Active ingredient: PAA [1, 6]: N | Visual observation category, Active ingredient: PAA [1, 19]: N | Ratios at which active ingredient interacted (w/w; active ingredient:polycation) ([1]; summary of Table 4): from 10.000:1 to 1:1 | Humectancy [4]: 137.0%

O=C(O)COc1ccc(Cl)cc1Cl [2,4D, 2-(2,4-dichlorophenoxy)acetic acid]
Visual observation category, Active ingredient: PAA [1, 20]: G/P | Visual observation category, Active ingredient: PAA [1, 19]: N | Visual observation category, Active ingredient: PAA [1, 17]: N | Visual observation category, Active ingredient: chitosan [2, 7]: N | Visual observation category, Active ingredient: chitosan [2, 8]: P | Visual observation category, Active ingredient: chitosan [2, 9]: N | Visual observation category, Active ingredient: chitosan [2, 10]: N | Visual observation category, Active ingredient: chitosan [2, 11]: P | Visual observation category, Active ingredient: chitosan [2, 12]: P | Visual observation category, Active ingredient: chitosan [2, 13]: N | Visual observation category, Active ingredient: chitosan [2, 14]: P | Visual observation category, Active ingredient: chitosan [2, 15]: P | Interaction with the polyanion sodium lignosulfonate [3]: did not form a visible complex | Humectancy [4]: 212.7%
